Experimental findings from BigSolDB 2.1 are described below.

For this series the following is noted: 298.15 K.

Take `Oc1ccc(/C=C/c2cc(O)cc(O)c2)cc1`: the solubility (mole fraction) (usually solubility expressed as the solute's share of all molecules) (in ethyl acetate) was 0.00895, the solubility (mole fraction) (in methanol) was determined as 0.0189, the solubility (mole fraction) (in n-butyl acetate) was 0.00463 and the solubility (mole fraction) (in n-propyl acetate) came out at 0.00596.
In the same order, the values of `O=c1c(O)c(-c2ccc(O)c(O)c2)oc2cc(O)cc(O)c12` are 0.00223, 0.00144, 0.00184 and 0.0019.
The corresponding values for `O=c1c(O)c(-c2ccc(O)cc2)oc2cc(O)cc(O)c12` are 0.00452, 0.00324, 0.0024 and 0.00275.
For `OC[C@H]1O[C@@H](Oc2cc(O)cc(/C=C/c3ccc(O)cc3)c2)[C@H](O)[C@@H](O)[C@@H]1O`, the solubility (mole fraction) runs as follows: (in ethyl acetate) 6.73e-05; (in methanol) 0.0086; (in n-butyl acetate) 1.96e-05; (in n-propyl acetate) 3.37e-05.
